Tests used:
[1] = test system: SKOV3 cells adhesion to FN; assay: Solid phase adhesion assay to FN, SKOV3; assay type: cell-based
Description: Cells labeled with calcein AM (Life Technologies, #L3224) were seeded at a density of 4×10^4 cells in 96-well plates pre-coated with FN (5 μg/mL, Sigma, #F1141), and blocked using 1% BSA (Sigma, #A9647) in PBS in the presence of selected compounds diluted at the specified concentrations, in serum free media. After 45 minutes, unattached cells were washed using PBS containing 1 mM MgCl2(Sigma, #M8266) and adherent cells were quantified in a SpectraMaxGeminiXS fluorescence plate reader (Molecular Devices, Palo Alto, Calif.) at 530 nm wavelength. Experiments were performed inquadruplicate and repeated at least twice.

[2] = test system: OVCAR5 cells attachment onto FN; assay: Early attachment assay with IF staining; assay type: cell-based, human; settings: 1 μM, 72 hours pre-treatment, 30 minutes after seeding
Description: (§1) OVCAR5 cells were seeded(1×10^5 cells/well) in 6-well plates (Denville Scientific) and treated for 72 hrs with 1 μM MT-4, TG53 or vehicle control (DMSO). After drug exposure, cells were detached using Cellstripper (cellgro, #25-056-CI, CORNING, Manassas, Va., USA), centrifuged, and counted. Before seeding for either confocal microscopy or western blotting, they were incubated in serum free media in the presence of drugs for 15-90 minutes, as stated in the figure legends.
In order to analyze cell adhesion complex proteins expression and localization upon early attachment, cells were treated as stated above and then seeded onto FN-coated cover slips for 30 minutes at 37° C. Samples were fixed in 4% p-formaldehyde (PFA) and permeabilized with 0.2% Triton-X-100. After blocking, focal contacts were identified by using anti-vinculin antibodies, activation of integrins signaling pathway was assessed by antibodies against phosphorylated focal adhesion kinase (FAK), while actin cytoskeleton was labeled by Alexa Fluor 488-conjugated phalloidin (Life Technologies, #A12379). Nuclei were stained with 1:10000 Hoechst (Thermo Scientific) and specimens were mounted in Prolong Gold anti-fadereagent (Life Technologies). Cells were analyzed by laser scanning using a Nikon A1RGaAsPConfocal Laser Microscope. For co-localization analyses, SKOV3 cells were treated with DMSO (control) or TG53 (1 μM) and plated on FN-coated chamber slides (BD Biosciences) for 72 hrs. IF analysis was performed as previously described (Condello et al., 2013b). Briefly, after fixation, permeabilization and blocking, cells were incubated overnight with p-FAK (Y576/577), c-Src, p-Src (Y416), integrin β1 or TG2 primary antibodies in blocking buffer at 4° C., followed by 1 h incubation with Cy5-conjugated anti-mouse secondary antibody (1:500; Zymed Laboratories; South San Francisco, Calif., USA) or Alexa Fluor 488 anti-rabbit secondary antibody (1:1000; Molecular Probes, Eugene, Oreg., USA) at RT. Isotype-specific IgG was used as a negative control. Nuclei were visualized by 4′,6-diamidino-2-phenylindole (DAPI) staining (Vectashield; Vector Laboratories, Burlingame, Calif., USA). Analysis was done using an LSM 510 META confocal multiphoton microscope system (Carl Zeiss Inc., Thomwood, N.Y., USA) under UV excitation at 630 nm (for Cy5), 488 nm (for Alexa Fluor 488), and 340 nm (for DAPI) and using a 60× magnification objective. Colocalization percentage was calculated by normalizing the pixels corresponding to Cy5 or Alexa Fluor 488 emissions to DAPI pixels in the same cell, followed by merging area of green with area of red and determination of average of overlap areas. A Student' t test was calculated to determine statistical significance of differences between drug treated and DMSO control treated cells.

[3] = test system: integrin β1 on OVCAR5 cells; assay: Flow cytometry of surface integrin β1, OVCAR5; assay type: cell-based, human; settings: serial concentrations
Description: FIG. 32. Flow cytometry analysis of integrin 31 plasma membrane expression. […] OC cells were pre-incubated 1 h with serial dilutions of MT4 (as compared to TG53- and DMSO-treated cells), and left to attach for on either plastic (P) or fibronectin (FN) coated 6-well plates. Anti-integrin 31 antibodies (0.5 μg/mL) were used as control.

[4] = test system: FAK and ERK phosphorylation in OVCAR5 cells; assay: Western blotting, time course after attachment to FN; assay type: cell-based, human; settings: 5 μM
Description: FIG. 5. Effects of SMIs targeting the TG2/FN complex on “outside-in” signaling and adhesion to mesothelial surfaces. A, Western blot analysis of total and phosphorylated FAK and ERK was performed using cell lysates extracted from OVCAR cells plated on FN for 15 to 45 minutes in the presence of TG53 (left) or MT-4 (right) at 5 μM concentration, as compared to DMSO. GAPDH was used as a control. OVCAR5 cells had been pretreated with the inhibitors for 72 hours. Densitometry analysis used the Quantity One software and results were normalized to GAPDH loading controls. DMSO 0 min time point was considered as 1 for comparative analysis. Values are shown for each band. B, A modified cell adhesion assay measured the effects of TG53, MT-4, MT-5, and MT-6 (25 μM) on SKOV3 cells' adhesion onto semi-confluent LP9 monolayers. C, Dose-dependent effects of TG53, MT-4, MT-5, and MT-6 on OVCAR433 cells adhesion onto semi-confluent LP9 monolayers. D-E, Wound healing assay measures migration of SKOV3 and OVCAR5 cells in the presence of MT-4, MT-5, MT-6 at a concentration of 8 μM (black bars) or vehicle (open bar). Migration rate was determined over a period of 24 hours by measuring the average distance between the wound borders at the beginning and at the end of the assay interval (n=4). F-G, SKOV3-GFP OC cells were injected ip in NSG mice in the presence of either MT-4 ([…]) (F) or MT-6 ([…]) (G) and allowed to attach to the peritoneal wall. After 2 hours, the cell suspension was recovered from the peritoneal cavity through peritoneal washings and the non-attached OC cells recovered were counted. *p<0.05, **p<0.01, ***p<0.001, ****p<0.0001.
as §1
Cells pre-treated as stated above were seeded in 60 mm dishes coated with 5 μg/mL FN and serially harvested at 15, 30, and 45 minutes, − or left unattached (0 min), in cold RIPA buffer. Lysates were separated by SDS-PAGE, transferred onto PVDF membranes (Bio-Rad), incubated with primary and secondary antibodies and developed by using SuperSignal™ West Femto Maximum Sensitivity Substrate and Pierce™ ECL Western Blotting Substrate, respectively (Thermo Scientific). […] Densitometry analysis was performed using Quantity One software (Bio-Rad) and results were normalized to GAPDH loading controls. […]

`Cc1cc(N(C)C)nc(Nc2ccc(NC(=O)Cc3ccccc3)cc2)n1` [MT-4] was tested, and the “cell adhesion to FN, dose dependence” value ([1]; 2 μM-25 μM) was “dose-dependent inhibitory effect”, the “OC cells' adhesion to FN” value ([1]; FN 5 μg/mL, FIG. 2E) was “potently blocked” and the “FAK phosphorylation (IF)” value [2] was “decreased”. For the same compound, the “number of focal contacts with FN-coated substrate (vinculin)” value [2] was “decreased”, the “β1 integrin receptors at the plasma membrane” value [3] was “did not show significant downregulation” and the “ERK phosphorylation, time course” value ([4]; 15 to 45 minutes on FN) was “inhibited and delayed”. For the same compound, the “FAK phosphorylation, time course” value ([4]; 15 to 45 minutes on FN) was “more evident”.
In the case of `COc1ccc(Cl)cc1C(=O)Nc1ccc(Nc2nc(C)cc(N(C)C)n2)cc1` [TG53], the “cell adhesion to FN” value ([1]; 25 μM, FIG. 13A) was “inhibited cell adhesion”, the “inhibition of cell adhesion to FN, TG2 expressing vs AS-TG2 cells” value ([1]; 25 μM, SKOV3pcDNA3.1 vs SKOV3-ASTG2) was “more pronounced in TG2 expressing SKOV3pcDNA3.1 cells” and the “cell adhesion to FN, dose dependence and specificity” value ([1]; 1-25 μM, TG53 compared with TG288) was “dose-dependent”. For the same compound, the “FAK phosphorylation (IF)” value [2] was “decreased”, the “number of focal contacts with FN-coated substrate (vinculin)” value [2] was “decreased” and the “β1 integrin receptors at the plasma membrane” value [3] was “did not show significant downregulation”. For the same compound, the “FAK phosphorylation, time course” value ([4]; 15 to 45 minutes on FN) was “modestly delayed” and the “time of peak FAK activation post cell seeding on FN” value ([4]; control 15 minutes) was 30 min.
